From patent US9714247B2, “Multiple kinase pathway inhibitors” (Mannkind Corporation, priority 2012, dated 2017)
pIC50: −log10 of the molar value.

Key:
Abl(T315I)(h) = Abl(T315I)(h) (Homo sapiens (Human), UniProt P00519, T315I); test: IC50 profiler radiometric kinase assay (Millipore); type: biochemical; settings: TK
Experimental: (§1) In order to determine the relative enzyme selectivity of these amino naphthyridinones, representative amino naphthyridinones were evaluated for their ability to inhibit various kinases. Kinases were selected for a broad representation of the kinome (see FIG. 2: Kinases Evaluated). Compounds were evaluated using the IC50 profiler assay (Millipore), which measures substrate phosphorylation via γ-^33P-ATP transfer by the kinase of interest.
(§2) The assay directly measures the catalytic incorporation of phosphate onto kinase substrates. The kinase protein is incubated in buffer with substrate and γ-^33P-ATP. The reaction is initiated by the addition of the Mg-ATP mix. At the end of the reaction incubation time, the reaction is stopped by the addition of phosphoric acid solution and 10 μL of the reaction is spotted onto a filtermat, washed, dried and counted in scintillation fluid. […] In particular the amino naphthyridinones inhibited Abl and some but not all tested members of the Tec and Src families of tyrosine kinases, but not tyrosine-like kinases or the non-tyrosine kinases tested (See FIG. 2: Compound 1). […] Other known drugs with activity against BTK and SFKs, such as dasatinib and bosutinib, have activity against a broader array of tyrosine kinases as well as inhibiting non-tyrosine kinases (See FIG. 2: Dasatinib).

Aurora-A(h) = Aurora-A(h) (Homo sapiens (Human), UniProt O14965); test: IC50 profiler radiometric kinase assay (Millipore); type: biochemical; settings: MISC
Experimental: as §1, §2

BTK(h) = BTK(h) (Homo sapiens (Human), UniProt Q06187); test: IC50 profiler radiometric kinase assay (Millipore); type: biochemical; settings: TK
Experimental: as §1, §2

CK1δ(h) = CK1δ(h) (Homo sapiens (Human), UniProt P48730); test: IC50 profiler radiometric kinase assay (Millipore); type: biochemical; settings: CK1
Experimental: as §1, §2

CSK(h) = CSK(h) (Homo sapiens (Human), UniProt P41240); test: IC50 profiler radiometric kinase assay (Millipore); type: biochemical; settings: TK
Experimental: as §1, §2

FGFR1(h) = FGFR1(h) (Homo sapiens (Human), UniProt P11362); test: IC50 profiler radiometric kinase assay (Millipore); type: biochemical; settings: TK
Experimental: as §1, §2

GSK3β(h) = GSK3β(h) (Homo sapiens (Human), UniProt P49841); test: IC50 profiler radiometric kinase assay (Millipore); type: biochemical; settings: CMGC
Experimental: as §1, §2

IGF-1R(h) = IGF-1R(h) (Homo sapiens (Human), UniProt P08069); test: IC50 profiler radiometric kinase assay (Millipore); type: biochemical; settings: TK
Experimental: as §1, §2

Itk(h) = Itk(h) (Homo sapiens (Human), UniProt Q08881); test: IC50 profiler radiometric kinase assay (Millipore); type: biochemical; settings: TK
Experimental: as §1, §2

JAK3(h) = JAK3(h) (Homo sapiens (Human), UniProt P52333); test: IC50 profiler radiometric kinase assay (Millipore); type: biochemical; settings: TK
Experimental: as §1, §2

KDR(h) = KDR(h) (Homo sapiens (Human), UniProt P35968); test: IC50 profiler radiometric kinase assay (Millipore); type: biochemical; settings: TK
Experimental: as §1, §2

Lck(h) = Lck(h) (Homo sapiens (Human), UniProt P06239); test: IC50 profiler radiometric kinase assay (Millipore); type: biochemical; settings: TK
Experimental: as §1, §2

MAPK1(h) = MAPK1(h) (Homo sapiens (Human), UniProt P27361); test: IC50 profiler radiometric kinase assay (Millipore); type: biochemical; settings: CMGC
Experimental: as §1, §2

MEK1(h) = MEK1(h) (Homo sapiens (Human), UniProt Q02750); test: IC50 profiler radiometric kinase assay (Millipore); type: biochemical; settings: STE
Experimental: as §1, §2

Met(h) = Met(h) (Homo sapiens (Human), UniProt P08581); test: IC50 profiler radiometric kinase assay (Millipore); type: biochemical; settings: TK
Experimental: as §1, §2

PDGFRα(h) = PDGFRα(h) (Homo sapiens (Human), UniProt P16234); test: IC50 profiler radiometric kinase assay (Millipore); type: biochemical; settings: TK
Experimental: as §1, §2

PDK1(h) = PDK1(h) (Homo sapiens (Human), UniProt O15530); test: IC50 profiler radiometric kinase assay (Millipore); type: biochemical; settings: AGC
Experimental: as §1, §2

PKCα(h) = PKCα(h) (Homo sapiens (Human), UniProt P17252); test: IC50 profiler radiometric kinase assay (Millipore); type: biochemical; settings: AGC
Experimental: as §1, §2

Syk(h) = Syk(h) (Homo sapiens (Human), UniProt P43405); test: IC50 profiler radiometric kinase assay (Millipore); type: biochemical; settings: TK
Experimental: as §1, §2

TGFBR1(h) = TGFBR1(h) (Homo sapiens (Human), UniProt P36897); test: IC50 profiler radiometric kinase assay (Millipore); type: biochemical; settings: TKL
Experimental: as §1, §2

Tie2(h) = Tie2(h) (Homo sapiens (Human), UniProt Q02763); test: IC50 profiler radiometric kinase assay (Millipore); type: biochemical; settings: TK
Experimental: as §1, §2

cSRC(h) = cSRC(h) (Homo sapiens (Human), UniProt P12931); test: IC50 profiler radiometric kinase assay (Millipore); type: biochemical; settings: TK
Experimental: as §1, §2

CDK2/cyclinA(h) = CDK2/cyclinA(h) (Homo sapiens (Human), UniProt P24941); test: IC50 profiler radiometric kinase assay (Millipore); type: biochemical; settings: CMGC
CDK9/cyclinT1(h) = CDK9/cyclinT1(h) (Homo sapiens (Human), UniProt P50750); test: IC50 profiler radiometric kinase assay (Millipore); type: biochemical; settings: CMGC
p70S6K(h) = p70S6K(h) (Homo sapiens, UniProt P23443); test: IC50 profiler radiometric kinase assay (Millipore); type: biochemical; settings: AGC
[1] = molecular target: PI3 Kinase (p110α/p85α)(h) (Homo sapiens (Human), UniProt P42336); test: IC50 profiler radiometric kinase assay (Millipore); type: biochemical; settings: Lipid/Atypical
[2] = molecular target: PI3 Kinase (p110β/p85α)(h) (Homo sapiens (Human), UniProt P42338); test: IC50 profiler radiometric kinase assay (Millipore); type: biochemical; settings: Lipid/Atypical
DoHH2 = test: Apoptosis by flow cytometry (Annexin V / 7AAD); type: cell-based, human; settings: for Percent Apoptosis DOHH2: Table 5, 6 hours
Excerpt: Activation of Tec family kinases including BTK, and/or Src kinase family members, regulates cell survival and cell death in normal B cells, lymphomas, and solid tumors. Apoptosis is a programmed cell death characterized by specific changes in cell morphology. […] Staurosporine was used as a positive control for apoptosis. […] Table 6 illustrates that several amino naphthyridinones induce significant apoptosis in DoHH2 cells.

DoHH2 cells = settings: treated 24 hours
BTK = BTK (Homo sapiens (Human), UniProt Q06187); settings: read-out: BTK IC50

Sequence of PDK1(h) (O15530 whole entry): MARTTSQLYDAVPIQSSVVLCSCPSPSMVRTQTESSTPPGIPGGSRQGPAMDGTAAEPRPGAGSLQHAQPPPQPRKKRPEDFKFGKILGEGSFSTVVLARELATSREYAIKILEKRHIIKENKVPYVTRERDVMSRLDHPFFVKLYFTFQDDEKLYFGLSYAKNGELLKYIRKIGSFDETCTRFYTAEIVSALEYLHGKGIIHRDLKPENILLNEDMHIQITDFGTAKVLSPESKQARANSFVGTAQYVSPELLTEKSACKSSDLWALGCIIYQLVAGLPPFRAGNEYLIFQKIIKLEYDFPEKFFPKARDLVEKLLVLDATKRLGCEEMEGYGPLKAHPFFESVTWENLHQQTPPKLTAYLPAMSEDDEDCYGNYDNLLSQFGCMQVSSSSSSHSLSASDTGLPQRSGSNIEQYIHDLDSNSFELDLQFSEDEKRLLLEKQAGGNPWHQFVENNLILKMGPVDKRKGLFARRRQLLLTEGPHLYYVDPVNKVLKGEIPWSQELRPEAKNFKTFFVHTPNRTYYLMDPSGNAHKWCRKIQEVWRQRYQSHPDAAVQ
Sequence of Aurora-A(h) (O14965 whole entry): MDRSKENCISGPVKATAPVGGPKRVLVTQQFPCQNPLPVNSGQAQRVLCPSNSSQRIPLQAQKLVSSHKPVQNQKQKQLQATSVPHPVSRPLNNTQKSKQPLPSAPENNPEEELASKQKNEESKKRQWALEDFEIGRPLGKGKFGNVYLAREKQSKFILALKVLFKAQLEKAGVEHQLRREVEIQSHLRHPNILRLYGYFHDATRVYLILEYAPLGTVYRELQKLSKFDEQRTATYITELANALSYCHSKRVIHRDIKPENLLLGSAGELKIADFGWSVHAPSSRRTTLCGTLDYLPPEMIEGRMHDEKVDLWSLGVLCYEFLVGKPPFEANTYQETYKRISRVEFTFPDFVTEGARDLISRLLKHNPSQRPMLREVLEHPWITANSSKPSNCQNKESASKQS
Sequence of FGFR1(h) (P11362 22-822): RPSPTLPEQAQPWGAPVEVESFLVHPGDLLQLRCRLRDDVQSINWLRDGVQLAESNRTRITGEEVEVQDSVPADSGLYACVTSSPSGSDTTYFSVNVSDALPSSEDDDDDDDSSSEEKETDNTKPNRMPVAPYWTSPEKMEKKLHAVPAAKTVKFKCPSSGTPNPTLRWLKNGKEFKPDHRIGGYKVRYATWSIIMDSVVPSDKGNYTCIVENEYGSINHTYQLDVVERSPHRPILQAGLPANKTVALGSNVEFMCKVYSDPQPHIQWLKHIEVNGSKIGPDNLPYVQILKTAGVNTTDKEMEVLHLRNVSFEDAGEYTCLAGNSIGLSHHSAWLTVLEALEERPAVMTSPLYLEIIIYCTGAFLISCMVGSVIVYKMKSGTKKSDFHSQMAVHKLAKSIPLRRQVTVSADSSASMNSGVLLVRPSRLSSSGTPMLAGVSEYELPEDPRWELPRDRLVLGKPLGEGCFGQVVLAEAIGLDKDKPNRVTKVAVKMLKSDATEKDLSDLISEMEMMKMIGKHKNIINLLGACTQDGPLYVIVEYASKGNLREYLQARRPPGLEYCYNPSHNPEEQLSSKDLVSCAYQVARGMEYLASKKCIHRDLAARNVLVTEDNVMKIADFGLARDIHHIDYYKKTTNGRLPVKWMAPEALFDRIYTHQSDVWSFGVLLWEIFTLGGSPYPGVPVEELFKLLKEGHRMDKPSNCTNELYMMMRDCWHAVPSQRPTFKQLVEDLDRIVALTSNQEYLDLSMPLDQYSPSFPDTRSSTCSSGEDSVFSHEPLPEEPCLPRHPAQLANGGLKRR
Sequence of PDGFRα(h) (P16234 24-1089): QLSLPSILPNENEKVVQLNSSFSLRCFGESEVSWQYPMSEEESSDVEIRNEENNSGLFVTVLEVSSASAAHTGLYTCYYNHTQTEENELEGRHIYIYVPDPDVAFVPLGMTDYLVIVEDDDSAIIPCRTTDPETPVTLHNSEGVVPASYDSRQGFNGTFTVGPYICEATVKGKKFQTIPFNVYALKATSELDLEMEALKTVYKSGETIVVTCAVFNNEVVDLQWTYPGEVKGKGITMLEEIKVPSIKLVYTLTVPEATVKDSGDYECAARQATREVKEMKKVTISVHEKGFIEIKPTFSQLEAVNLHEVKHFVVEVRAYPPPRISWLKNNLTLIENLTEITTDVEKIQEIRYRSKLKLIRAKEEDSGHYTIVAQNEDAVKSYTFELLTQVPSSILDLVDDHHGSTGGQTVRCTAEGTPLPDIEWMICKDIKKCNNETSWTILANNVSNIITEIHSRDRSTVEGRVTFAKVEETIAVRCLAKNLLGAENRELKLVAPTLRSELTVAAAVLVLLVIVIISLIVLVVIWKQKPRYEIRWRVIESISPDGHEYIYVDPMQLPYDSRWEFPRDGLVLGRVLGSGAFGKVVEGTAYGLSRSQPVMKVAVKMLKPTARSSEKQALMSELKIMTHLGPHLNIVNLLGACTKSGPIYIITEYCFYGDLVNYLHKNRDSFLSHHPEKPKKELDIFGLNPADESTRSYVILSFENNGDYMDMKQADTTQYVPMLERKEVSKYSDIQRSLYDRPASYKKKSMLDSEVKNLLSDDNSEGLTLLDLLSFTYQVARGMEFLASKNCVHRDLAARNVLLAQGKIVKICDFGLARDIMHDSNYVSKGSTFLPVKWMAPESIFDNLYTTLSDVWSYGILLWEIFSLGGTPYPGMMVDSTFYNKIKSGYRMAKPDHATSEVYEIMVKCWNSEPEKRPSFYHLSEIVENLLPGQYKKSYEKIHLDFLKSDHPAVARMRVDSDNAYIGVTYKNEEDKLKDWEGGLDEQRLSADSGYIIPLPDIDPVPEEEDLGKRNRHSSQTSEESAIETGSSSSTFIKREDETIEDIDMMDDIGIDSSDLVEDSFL
Sequence of CSK(h) (P41240 whole entry): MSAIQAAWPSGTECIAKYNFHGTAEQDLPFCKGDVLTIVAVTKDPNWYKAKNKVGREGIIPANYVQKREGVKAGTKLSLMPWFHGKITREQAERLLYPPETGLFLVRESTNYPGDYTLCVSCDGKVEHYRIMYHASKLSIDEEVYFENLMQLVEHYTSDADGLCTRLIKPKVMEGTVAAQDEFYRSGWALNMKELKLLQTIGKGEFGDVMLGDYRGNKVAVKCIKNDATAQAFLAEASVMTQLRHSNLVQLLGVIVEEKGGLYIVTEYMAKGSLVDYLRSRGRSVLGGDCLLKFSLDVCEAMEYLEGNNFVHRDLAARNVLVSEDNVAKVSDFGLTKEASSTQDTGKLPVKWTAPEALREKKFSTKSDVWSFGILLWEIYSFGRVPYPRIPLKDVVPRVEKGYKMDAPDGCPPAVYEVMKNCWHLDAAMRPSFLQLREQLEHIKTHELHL
Sequence of cSRC(h) (P12931 whole entry, looked up): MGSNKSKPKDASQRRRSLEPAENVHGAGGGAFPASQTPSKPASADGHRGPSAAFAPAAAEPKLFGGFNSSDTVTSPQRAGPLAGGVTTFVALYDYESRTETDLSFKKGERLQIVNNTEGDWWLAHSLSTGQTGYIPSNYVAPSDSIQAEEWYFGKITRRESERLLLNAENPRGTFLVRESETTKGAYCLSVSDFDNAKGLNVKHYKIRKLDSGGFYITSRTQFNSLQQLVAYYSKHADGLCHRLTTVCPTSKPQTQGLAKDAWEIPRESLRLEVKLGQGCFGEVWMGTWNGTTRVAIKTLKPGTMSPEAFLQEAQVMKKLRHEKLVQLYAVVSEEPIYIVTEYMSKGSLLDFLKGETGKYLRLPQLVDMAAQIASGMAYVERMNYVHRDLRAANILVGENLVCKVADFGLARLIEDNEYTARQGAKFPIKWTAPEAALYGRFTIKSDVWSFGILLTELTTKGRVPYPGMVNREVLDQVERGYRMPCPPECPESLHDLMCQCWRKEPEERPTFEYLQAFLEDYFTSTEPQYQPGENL
Sequence of GSK3β(h) (P49841 whole entry): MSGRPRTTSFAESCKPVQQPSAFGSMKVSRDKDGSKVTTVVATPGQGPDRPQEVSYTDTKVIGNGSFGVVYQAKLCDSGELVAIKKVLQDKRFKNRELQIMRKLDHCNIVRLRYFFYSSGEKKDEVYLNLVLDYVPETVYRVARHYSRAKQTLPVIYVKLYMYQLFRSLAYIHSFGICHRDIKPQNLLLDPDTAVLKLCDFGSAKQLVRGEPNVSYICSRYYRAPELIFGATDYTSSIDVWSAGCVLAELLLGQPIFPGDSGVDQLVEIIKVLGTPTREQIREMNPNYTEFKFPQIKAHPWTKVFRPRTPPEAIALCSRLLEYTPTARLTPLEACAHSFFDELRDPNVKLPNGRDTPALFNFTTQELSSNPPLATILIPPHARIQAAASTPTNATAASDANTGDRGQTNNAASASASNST
Sequence of CK1δ(h) (P48730 whole entry): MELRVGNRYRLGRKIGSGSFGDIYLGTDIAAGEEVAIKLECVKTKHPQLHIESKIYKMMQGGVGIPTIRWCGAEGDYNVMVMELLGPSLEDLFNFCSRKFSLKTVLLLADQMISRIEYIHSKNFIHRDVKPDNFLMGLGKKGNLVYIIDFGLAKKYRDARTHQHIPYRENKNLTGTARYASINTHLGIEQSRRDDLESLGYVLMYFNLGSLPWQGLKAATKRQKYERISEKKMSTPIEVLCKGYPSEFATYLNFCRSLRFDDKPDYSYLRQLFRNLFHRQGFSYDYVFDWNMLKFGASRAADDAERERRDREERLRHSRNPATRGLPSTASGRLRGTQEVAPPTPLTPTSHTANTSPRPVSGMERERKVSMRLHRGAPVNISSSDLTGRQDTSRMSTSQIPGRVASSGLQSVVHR
Sequence of MAPK1(h) (P27361 whole entry): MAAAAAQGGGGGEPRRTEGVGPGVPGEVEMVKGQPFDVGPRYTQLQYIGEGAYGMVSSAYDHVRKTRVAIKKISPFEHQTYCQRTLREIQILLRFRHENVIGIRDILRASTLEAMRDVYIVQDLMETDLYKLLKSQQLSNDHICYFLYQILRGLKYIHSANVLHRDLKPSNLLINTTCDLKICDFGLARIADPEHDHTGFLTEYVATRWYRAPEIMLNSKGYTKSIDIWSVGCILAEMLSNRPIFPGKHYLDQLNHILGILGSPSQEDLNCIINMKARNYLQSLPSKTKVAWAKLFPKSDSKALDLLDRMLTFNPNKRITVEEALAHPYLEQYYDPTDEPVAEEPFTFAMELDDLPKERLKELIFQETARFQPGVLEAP

SMILES | pIC50 (Abl(T315I)(h)) | pIC50 (Aurora-A(h)) | pIC50 (BTK(h)) | pIC50 (CK1δ(h)) | pIC50 (CSK(h)) | pIC50 (FGFR1(h)) | pIC50 (GSK3β(h)) | pIC50 (IGF-1R(h)) | pIC50 (Itk(h)) | pIC50 (JAK3(h)) | pIC50 (KDR(h)) | pIC50 (Lck(h)) | pIC50 (MAPK1(h)) | pIC50 (MEK1(h)) | pIC50 (Met(h)) | pIC50 (PDGFRα(h)) | pIC50 (PDK1(h)) | pIC50 (PKCα(h)) | pIC50 (Syk(h)) | pIC50 (TGFBR1(h)) | also measured
CCN(CC)CCOc1ccc(Nc2cc3c(cn2)cc(-c2ccccc2)c(=O)n3CC)nc1 [Compound 1, 7-[5-(2-Diethylamino-ethoxy)-pyridin-2-ylamino]-1-ethyl-3-phenyl-1H-[1, 6]naphthyridin-2-one] | 6.30 to 7.00 | < 6.00 | 7.00 to 8.00 | < 6.00 | 6.00 to 6.30 | > 8.00 | < 6.00 | < 6.00 | < 6.00 | < 6.00 | 6.30 to 7.00 | > 8.00 | < 6.00 | < 6.00 | < 6.00 | 6.30 to 7.00 | < 6.00 | < 6.00 | < 6.00 | 6.30 to 7.00 | pIC50 (Tie2(h)): 6.00 to 6.30; pIC50 (cSRC(h)): > 8.00; pIC50 (CDK2/cyclinA(h)): < 6.00; pIC50 (CDK9/cyclinT1(h)): < 6.00; pIC50 (p70S6K(h)): < 6.00; pIC50 [1]: < 6.00; pIC50 [2]: < 6.00; Percent Apoptosis DOHH2 (DoHH2; 1 uM): 4.43%; Percent Apoptosis DOHH2 (DoHH2; 2 uM): 29.84%; Percent Apoptosis DOHH2 (DoHH2; 5 uM): 21.76%; Percent Apoptosis DOHH2 (DoHH2; 10 uM): 37.52%; Percent Apoptosis at 2 uM (DoHH2; Table 6, DOHH2, 2 uM): 26.2%; Percent Apoptosis at 5 uM (DoHH2; Table 6, DOHH2, 5 uM): 32.58%; Effect on Cell Cycle (DoHH2 cells): G1 Arrest; pIC50 (BTK): > 7.00
CCn1c(=O)c(-c2ccccc2)cc2cnc(Nc3ncc(CCN(C)C)s3)cc21 [Compound 2, 7-[5-(2-Dimethylamino-ethyl)-thiazol-2-ylamino]-1-ethyl-3-phenyl-1H-[1,6]naphthyridin-2-one] | 6.00 to 6.30 | < 6.00 | 6.30 to 7.00 | < 6.00 | < 6.00 | 7.00 to 8.00 | < 6.00 | < 6.00 | < 6.00 | < 6.00 | 6.00 to 6.30 | > 8.00 | < 6.00 | < 6.00 | < 6.00 | 6.00 to 6.30 | < 6.00 | < 6.00 | < 6.00 | 6.00 to 6.30 | pIC50 (Tie2(h)): < 6.00; pIC50 (cSRC(h)): 6.30 to 7.00; pIC50 (CDK2/cyclinA(h)): < 6.00; pIC50 (CDK9/cyclinT1(h)): < 6.00; pIC50 (p70S6K(h)): < 6.00; pIC50 [1]: < 6.00; pIC50 [2]: < 6.00; pIC50 (BTK): < 5.30
